According to BindingDB's records for doi:10.7270/Q2R78CQV (Burnham Center For Chemical Genomics, 2011):

target: Hexokinase HKDC1 [W721R] (Homo sapiens, UniProt Q2TB90, W721R); assay: activation of HKDC1 glucose phosphorylation – biochemical, W721R variant, dose response (AID 504730)
Sequence (Q2TB90 whole entry W721R): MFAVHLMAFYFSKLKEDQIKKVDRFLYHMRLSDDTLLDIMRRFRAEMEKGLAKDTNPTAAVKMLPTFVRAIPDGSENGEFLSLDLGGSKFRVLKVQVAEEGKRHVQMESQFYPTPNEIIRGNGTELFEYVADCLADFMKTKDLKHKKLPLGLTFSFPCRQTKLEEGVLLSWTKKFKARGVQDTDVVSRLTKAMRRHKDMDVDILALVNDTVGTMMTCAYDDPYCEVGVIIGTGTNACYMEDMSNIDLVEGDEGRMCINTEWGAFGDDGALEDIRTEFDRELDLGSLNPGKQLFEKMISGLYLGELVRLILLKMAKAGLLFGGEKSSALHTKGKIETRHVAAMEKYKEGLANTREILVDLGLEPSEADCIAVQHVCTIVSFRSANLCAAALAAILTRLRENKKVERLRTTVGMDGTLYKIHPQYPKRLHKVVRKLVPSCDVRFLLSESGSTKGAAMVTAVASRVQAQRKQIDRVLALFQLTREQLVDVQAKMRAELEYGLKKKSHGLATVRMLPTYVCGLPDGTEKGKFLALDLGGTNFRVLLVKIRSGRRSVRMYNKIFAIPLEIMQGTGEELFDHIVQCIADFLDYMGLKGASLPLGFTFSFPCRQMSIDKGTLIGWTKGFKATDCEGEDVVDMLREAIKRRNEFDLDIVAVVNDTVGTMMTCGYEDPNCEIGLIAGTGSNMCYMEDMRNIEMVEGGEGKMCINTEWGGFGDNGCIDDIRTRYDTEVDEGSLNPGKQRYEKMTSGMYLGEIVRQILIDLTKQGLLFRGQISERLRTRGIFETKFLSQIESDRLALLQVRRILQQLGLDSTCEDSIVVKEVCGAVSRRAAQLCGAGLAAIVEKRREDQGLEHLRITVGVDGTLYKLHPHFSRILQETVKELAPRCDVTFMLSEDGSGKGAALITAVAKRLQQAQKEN

Compared with CCCOC1=CC(=O)C(C=NNC(=S)Nc2ccccc2[N+](=O)[O-])C=C1 (centres undefined) [1-(2-nitrophenyl)-3-[[(E)-(6-oxo-4-propoxy-1-cyclohexa-2,4-dienylidene)methyl]amino]thiourea], Cc1[nH]n(-c2ccccc2)c(=O)c1CN=Nc1nncc(-c2ccccc2)n1 [(4E)-5-methyl-2-phenyl-4-[[(5-phenyl-1,2,4-triazin-3-yl)hydrazo]methylidene]-3-pyrazolone] is 4-fold lower in EC50: 26.5 µM for the first, 6.69 µM for the second.

First: O=C1C(=C2C(=O)c3ccccc3C2=O)Nc2ccccc21 [MLS000071738]
Second: CC(N=Nc1nc2ccccc2o1)c1cc2ccccc2cn1 (centres undefined)
The EC50 of the first is 11-fold higher: 24.7 µM for the first, 2.24 µM for the second. The second is the more potent here.

First: Oc1c(Cl)c(N=Cc2cccnc2)c(O)c2ccccc12 [MLS001195521]
Second: CC(=O)Oc1cccc2c(O)c3c(c(O)c12)CC=CC3OC(C)=O (centres undefined) [SMR001574207]
The EC50 of the first is 5.6-fold lower: 9.25 µM for the first, 51.6 µM for the second. The first is the more potent here.

Going from CC(C)(C)c1nnc(N=NCc2cc(Br)ccc2O)n(N)c1=O [4-azanyl-3-[2-[(E)-(3-bromanyl-6-oxidanylidene-cyclohexa-2,4-dien-1-ylidene)methyl]hydrazinyl]-6-tert-butyl-1,2,4-triazin-5-one] to Nn1cnnc1N=NCc1cc(Br)cc(Br)c1O, the EC50 rises from 19.9 µM to greater than 80 µM.

COCc1cc(C2C(C(=O)c3ccco3)C(=O)C(=O)N2CCOCCO)ccc1O (centres undefined) [3-(furan-2-carbonyl)-4-hydroxy-1-[2-(2-hydroxyethoxy)ethyl]-2-[4-hydroxy-3-(methoxymethyl)phenyl]-2H-pyrrol-5-one] gave an EC50 greater than 80 µM.
